Reference: US20100292260A1, “6-VINYL PYRIMIDINE AND PYRIMIDINONE DERIVATIVES AND THE USE THEREOF” (priority 2005, published 2010)
Read-outs that look alike come from different tables or passages of the source.

Legend:
HIV-1 mutant Y188L = assay: Inhibition of viral proliferation on culture cells (MT-4, MTT), Y188L mutant; type: cell-based
Protocol: (§1) The biological activity of the compounds was evaluated on lymphoid cell lines MT-4 against the wild strain of HIV-1 NL4-3. The MT-4 cells were briefly infected with the appropriate HIV-1 or the infection was simulated to determine the cytoxicity, in the presence of different concentrations of potential inhibitor compounds. 5 days after the infection a colorimetric method was used that involves using a tetrazole salt (MTT) to evaluate the number of surviving cells. The mutant IRLL98 HIV-1 contains the following mutations in the coding sequence for RT:M41L, D67N, Y181C, M184V, R211K, T215Y (resistance to NRTI) and the mutations K101Q, Y181C, G190A (resistance to NNRTI). The H1V-1 mutants containing multi-NNRTI mutations, K103N or Y188L as mutants were supplied by the Medical Research Council Centralised Facility for AIDS Reagents, Herfordshire, UK.

[1] = test system: wild strain of HIV-1 NL4-3; assay: Inhibition of viral proliferation on culture cells (MT-4, MTT), wild strain; type: cell-based
Protocol: as §1

HIV-1 mutant Y181C = assay: Inhibition of viral proliferation on culture cells (MT-4, MTT), Y181C mutant; type: cell-based
Protocol: as §1

HIV-1 mutant K103N = assay: Inhibition of viral proliferation on culture cells (MT-4, MTT), K103N mutant; type: cell-based
Protocol: as §1

[2] = target: T1, HIV-1 (recombinant) reverse transcriptase (Human immunodeficiency virus type 1 group M subtype B, UniProt P03366); assay: Enzyme test: reverse transcription reaction in vitro with recombinant RT, wild type; type: biochemical
T1 construct: 20-50 nM HIV-1 (recombinant) reverse transcriptase
Protocol: (§2) In a final volume of 25 microlitres the following reagents were mixed: 50 mM Tris-HCl pH 7.5, 0.25 mg/ml BSA, 0.5 mM DTT, 20-50 nM HIV-1 (recombinant) reverse transcriptase, nucleotide substrate dTTP marked radioactively (^3H, 4 Ci/mmol) and nucleic acid (poly(rA)/oligo(dT)). The concentrations of dTTP and poly(rA)/oligo(dT) in standard conditions were 5 μM and 0.5 μM, respectively.
(§3) The reaction mixture is incubated 10 min. at 37° C. and 20 μl are removed and deposited on a GF/C Whatman glass fibre filter measuring 25 mm in diameter. The filters are washed 3 times for 5 min. in 5% trichloroacetic acid and once for 5 min. in absolute alcohol. After being dried, the filters are immersed in a scintillating mixture (Packard) and the acid precipitable radioactivity is measured by a scintillation counter for β-emitting isotopes (Beckman).
(§4) The dose-response curves obtained by means of samples of enzyme activity in the presence of increasing doses of inhibitor were analysed according to the equation E(%)=Emax/([…], where E(%) is the fraction of enzyme activity that is measurable in the presence of each concentration of inhibitor, Emax is the activity in the absence of an inhibitor, I is the concentration of inhibitor. The ID50 was calculated by analysing data using the GraphPad Prism graphic interpolation programme (for Macintosh).

HIV-1 mutant Y181L = assay: Inhibition of viral proliferation on culture cells (MT-4, MTT), Y181L mutant; type: cell-based; details: Human immunodeficiency virus 1, MT4, read-out: EC50 Y181L
[3] = Cytotoxicity in mock-infected MT-4 cells (MTT); type: cell-based; details: human
Protocol: as §1

[4] = target: T2, reverse transcriptase containing the mutation Y181I (Human immunodeficiency virus type 1 group M subtype B, UniProt P03366, Y780I); assay: Enzyme test with mutated reverse transcriptase Y181I; type: biochemical, HIV-1
T2 construct: cloning the gene of the mutated RT in an expression vector for prokariotic cells; made in house
Protocol: as §2, §3
(§5) In some experiments, the HIV-1 recombinant reverse transcriptase was substituted by a reverse transcriptase containing the mutations K.103N and Y181I. They were produced by cloning the gene of the mutated RT in an expression vector for prokariotic cells according to the method reported in the literature (Maga G, Amacker M, Ruel N, Hubscher U, Spadari S. Resistance to nevirapine of HIV-1 reverse transcriptase mutants: loss of stabilizing interactions and thermodynamic or steric barriers are induced by different single amino acid substitutions. J Mol Biol. Dec. 19, 1997; 274(5):738-47).
as §4

[5] = target: T3, reverse transcriptase containing the mutation K103N (Human immunodeficiency virus type 1 group M subtype B, UniProt P03366, K702N); assay: Enzyme test with mutated reverse transcriptase K103N; type: biochemical, HIV-1
T3 construct: cloning the gene of the mutated RT in an expression vector for prokariotic cells; made in house
Protocol: as §2, §3, §5, §4

[6] = Table 1, recombinant RT wild type, read-out: ID50 WT
[7] = Table 2, enzyme test, read-out: WT
[8] = Human immunodeficiency virus 1, read-out: Y188L
[9] = Human immunodeficiency virus 1, NL43, read-out: NL4-3 wt
[10] = Human immunodeficiency virus 1, read-out: Y181C
[11] = Human immunodeficiency virus 1, read-out: K100N

Row | Compound | CC50 at 5 days [3] [µM] | IC50 [4] [µM] | IC50 [2, 7] [µM] | IC50 [5] [µM] | EC50 (HIV-1 mutant Y188L; [8]) [µM] | activity in cell tests on wild type, in words [1] | EC50 [1, 9] [µM] | EC50 (HIV-1 mutant Y181C; [10]) [µM] | EC50 (HIV-1 mutant K103N; [11]) [µM] | other results
1 | COc1ccc(C#CCSc2nc(C(C)c3c(Cl)cccc3Cl)c(C)c(=O)[nH]2)cc1 (racemic) [Compound 27b] | – | – | – | – | – | – | – | – | – | EC50 (HIV-1 mutant Y188L; Table 3, cell test, read-out: Y188L): 24.8 µM; EC50 ([1]; Table 3, cell test, read-out: NLA-3wt): 0.5 µM; EC50 (HIV-1 mutant Y181C; Table 3, cell test, read-out: Y181C): 33.5 µM; EC50 (HIV-1 mutant K103N; Table 3, cell test, read-out: K103N): > 54.5 µM
2 | C=Cc1nc(SC)nc(N(C)C)c1I [Compound 6a] | – | – | – | – | – | – | – | – | – | IC50 [2, 6]: > 400 µM
3 | C=Cc1cc(N(C)C)nc(SC)n1 [Compound 6c] | 57.4 | – | – | – | – | – | – | – | – | IC50 [2, 6]: > 400 µM; EC50 (HIV-1 mutant Y181L): > 128 µM; EC50 ([1]; Human immunodeficiency virus 1, NL43, MT4, read-out: EC50 NL4-3 wt): > 128 µM; EC50 (HIV-1 mutant K103N; Human immunodeficiency virus 1, MT4, read-out: EC50 K103N): > 128 µM
4 | COc1ccc(/C=C/CSc2nc(Cc3c(Cl)cccc3Cl)c(C)c(=O)[nH]2)cc1 [Compound 26a] | 0.96 | > 20 | 0.007 | 9 | > 0.96 | nanomolar and subnanomolar activity | 0.015 | > 0.96 | > 0.96 | activity in cell tests on mutant Y188L, in words (HIV-1 mutant Y188L): micromolar and submicromolar activity; activity in cell tests on mutant Y181C, in words (HIV-1 mutant Y181C): micromolar and submicromolar activity; activity in cell tests on mutant K103N, in words (HIV-1 mutant K103N): micromolar and submicromolar activity
5 | Cc1c(Cc2c(Cl)cccc2Cl)nc(SCC=Cc2ccc([N+](=O)[O-])cc2)[nH]c1=O [Compound 26b] | > 10.8 | > 20 | 3.81 | > 20 | > 10.8 | – | > 10.8 | > 10.8 | > 10.8 | –
6 | CCc1c(Cc2c(Cl)cccc2Cl)nc(SCC=Cc2ccc(C#N)cc2)[nH]c1=O [Compound 26c] | > 54.8 | – | 0.188 | – | – | – | 1.73 | – | > 54.8 | Y181C, % at given concentration (HIV-1 mutant Y181C; Table 2, at 54.82): 41% at
7 | Cc1c(Cc2c(Cl)cccc2Cl)nc(SCC=Cc2ccc(N(C)C)cc2)[nH]c1=O [Compound 26d] | > 54.4 | – | 0.788 | – | > 54.4 | – | > 54.4 | > 54.4 | > 54.4 | –
8 | CCc1c(Cc2c(Cl)cccc2Cl)nc(SCC=Cc2ccc(OC)cc2)[nH]c1=O [Compound 26e] | 0.19 | > 20 | 0.056 | > 20 | > 0.19 | nanomolar and subnanomolar activity | 0.0015 | > 0.19 | > 0.19 | –
9 | CCc1c(Cc2c(Cl)cccc2Cl)nc(SCC=Cc2ccc([N+](=O)[O-])cc2)[nH]c1=O [Compound 26f] | – | > 20 | 2.5 | > 20 | – | – | – | – | – | –
10 | COc1ccc(C=CCSc2nc(C(C)c3c(Cl)cccc3Cl)c(C)c(=O)[nH]2)cc1 (centres unmarked) [Compound 26g] | > 10.8 | > 20 | 0.018 | > 20 | 1.26 | nanomolar and subnanomolar activity | 0.009 | 3.6 | 2.47 | –
